AC50 data for six compounds are collected here from ChEMBL document CHEMBL5291721, “A preclinical secondary pharmacology resource illuminates target-adverse drug reaction associations of marketed drugs” (Nat Commun, 2023).

Assay [1] addresses T1, Alpha-1A adrenergic receptor (Homo sapiens, UniProt P35348).
T1 sequence (P35348 whole entry): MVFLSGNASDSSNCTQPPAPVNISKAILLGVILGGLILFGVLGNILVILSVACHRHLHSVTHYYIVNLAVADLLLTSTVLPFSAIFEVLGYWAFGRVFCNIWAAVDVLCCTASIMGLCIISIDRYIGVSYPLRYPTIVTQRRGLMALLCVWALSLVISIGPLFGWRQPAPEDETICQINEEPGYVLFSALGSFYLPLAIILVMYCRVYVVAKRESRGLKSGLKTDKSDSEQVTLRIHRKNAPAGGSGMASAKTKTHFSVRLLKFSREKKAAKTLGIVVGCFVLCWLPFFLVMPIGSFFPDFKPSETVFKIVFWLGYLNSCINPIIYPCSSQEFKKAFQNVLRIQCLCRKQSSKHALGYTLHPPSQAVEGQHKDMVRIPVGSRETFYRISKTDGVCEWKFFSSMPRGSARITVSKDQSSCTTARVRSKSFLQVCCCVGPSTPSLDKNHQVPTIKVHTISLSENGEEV

Assay [2] concerns the target D(1A) dopamine receptor (Homo sapiens, UniProt P21728).
Assay [3] deals with T2, Alpha-2A adrenergic receptor (Homo sapiens, UniProt P08913).
T2 sequence (P08913 whole entry): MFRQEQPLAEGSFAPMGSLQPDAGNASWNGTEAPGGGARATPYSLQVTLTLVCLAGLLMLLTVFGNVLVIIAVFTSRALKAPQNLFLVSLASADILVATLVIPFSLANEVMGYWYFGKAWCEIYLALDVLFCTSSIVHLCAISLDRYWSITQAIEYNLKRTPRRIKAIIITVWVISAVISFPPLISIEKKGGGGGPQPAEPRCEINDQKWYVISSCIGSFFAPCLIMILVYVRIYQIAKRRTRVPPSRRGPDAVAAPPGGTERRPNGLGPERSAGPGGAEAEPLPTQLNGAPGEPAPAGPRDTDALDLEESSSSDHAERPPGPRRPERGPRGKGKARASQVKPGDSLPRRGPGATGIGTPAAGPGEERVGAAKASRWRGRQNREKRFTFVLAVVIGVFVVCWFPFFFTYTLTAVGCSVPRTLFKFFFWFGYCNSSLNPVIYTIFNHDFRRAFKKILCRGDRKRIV

Assay [4] deals with T3, 5-hydroxytryptamine receptor 1A (Homo sapiens, UniProt P08908).
T3 sequence (P08908 whole entry): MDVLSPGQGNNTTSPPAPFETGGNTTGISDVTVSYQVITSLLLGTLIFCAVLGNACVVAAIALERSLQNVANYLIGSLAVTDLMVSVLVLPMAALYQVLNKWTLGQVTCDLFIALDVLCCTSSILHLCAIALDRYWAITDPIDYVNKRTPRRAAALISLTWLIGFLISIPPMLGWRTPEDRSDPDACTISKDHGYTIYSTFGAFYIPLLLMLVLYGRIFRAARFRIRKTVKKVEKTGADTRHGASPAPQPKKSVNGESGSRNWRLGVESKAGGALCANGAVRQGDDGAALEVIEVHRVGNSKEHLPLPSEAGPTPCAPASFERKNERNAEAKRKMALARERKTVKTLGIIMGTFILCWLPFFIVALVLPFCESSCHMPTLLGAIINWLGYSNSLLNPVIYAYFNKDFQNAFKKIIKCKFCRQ

For assay [5], the target named is T4, Oxysterols receptor LXR-alpha (Homo sapiens, UniProt Q13133).
T4 sequence (Q13133 whole entry): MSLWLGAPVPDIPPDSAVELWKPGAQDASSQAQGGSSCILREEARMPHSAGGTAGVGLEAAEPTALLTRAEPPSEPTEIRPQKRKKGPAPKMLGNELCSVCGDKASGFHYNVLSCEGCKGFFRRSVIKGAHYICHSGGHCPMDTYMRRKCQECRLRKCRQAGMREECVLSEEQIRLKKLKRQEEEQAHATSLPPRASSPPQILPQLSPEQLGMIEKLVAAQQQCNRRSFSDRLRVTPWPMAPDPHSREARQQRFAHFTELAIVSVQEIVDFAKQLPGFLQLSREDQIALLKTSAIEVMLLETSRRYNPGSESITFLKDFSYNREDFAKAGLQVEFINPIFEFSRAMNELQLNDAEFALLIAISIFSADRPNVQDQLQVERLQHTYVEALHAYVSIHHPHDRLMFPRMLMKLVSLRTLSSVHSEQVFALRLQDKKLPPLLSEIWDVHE
Type of assay: functional.

The target of assay [6] is T5, Bile acid receptor (Homo sapiens, UniProt Q96RI1).
T5 sequence (Q96RI1 whole entry): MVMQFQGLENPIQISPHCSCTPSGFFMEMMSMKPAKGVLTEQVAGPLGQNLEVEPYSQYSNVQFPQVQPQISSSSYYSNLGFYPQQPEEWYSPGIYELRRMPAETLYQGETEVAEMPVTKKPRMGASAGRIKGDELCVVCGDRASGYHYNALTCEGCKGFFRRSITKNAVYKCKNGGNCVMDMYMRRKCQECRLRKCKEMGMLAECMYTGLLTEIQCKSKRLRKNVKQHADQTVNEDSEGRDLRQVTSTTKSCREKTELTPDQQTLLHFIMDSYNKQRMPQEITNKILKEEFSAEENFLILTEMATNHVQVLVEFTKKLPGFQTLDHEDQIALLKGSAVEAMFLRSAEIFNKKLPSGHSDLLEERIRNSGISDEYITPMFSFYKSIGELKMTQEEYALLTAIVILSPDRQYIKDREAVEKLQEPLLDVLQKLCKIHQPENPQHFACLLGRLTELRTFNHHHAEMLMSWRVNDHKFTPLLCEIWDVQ
Type of assay: functional.

For assay [7], the target named is T6, Retinoic acid receptor beta (Homo sapiens, UniProt P10826).
T6 sequence (P10826 whole entry): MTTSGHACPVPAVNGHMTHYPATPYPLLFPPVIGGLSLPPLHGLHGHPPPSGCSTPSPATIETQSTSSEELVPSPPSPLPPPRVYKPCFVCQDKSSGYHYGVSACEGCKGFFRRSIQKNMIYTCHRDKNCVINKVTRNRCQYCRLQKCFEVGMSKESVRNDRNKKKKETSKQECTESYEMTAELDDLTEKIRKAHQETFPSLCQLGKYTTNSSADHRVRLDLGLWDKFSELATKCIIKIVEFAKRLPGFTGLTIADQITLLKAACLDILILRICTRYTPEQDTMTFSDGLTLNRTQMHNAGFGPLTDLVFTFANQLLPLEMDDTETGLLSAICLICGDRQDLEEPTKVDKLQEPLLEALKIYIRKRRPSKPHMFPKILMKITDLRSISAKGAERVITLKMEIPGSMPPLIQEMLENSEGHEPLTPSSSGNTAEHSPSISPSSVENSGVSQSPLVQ
It is filed as functional, cell-based.

In assay [8] the target is T5, Bile acid receptor. Type of assay: functional. The source holds these as a separate data set.
Also: assay procedure not described here.

Sequence of D(1A) dopamine receptor (P21728 whole entry): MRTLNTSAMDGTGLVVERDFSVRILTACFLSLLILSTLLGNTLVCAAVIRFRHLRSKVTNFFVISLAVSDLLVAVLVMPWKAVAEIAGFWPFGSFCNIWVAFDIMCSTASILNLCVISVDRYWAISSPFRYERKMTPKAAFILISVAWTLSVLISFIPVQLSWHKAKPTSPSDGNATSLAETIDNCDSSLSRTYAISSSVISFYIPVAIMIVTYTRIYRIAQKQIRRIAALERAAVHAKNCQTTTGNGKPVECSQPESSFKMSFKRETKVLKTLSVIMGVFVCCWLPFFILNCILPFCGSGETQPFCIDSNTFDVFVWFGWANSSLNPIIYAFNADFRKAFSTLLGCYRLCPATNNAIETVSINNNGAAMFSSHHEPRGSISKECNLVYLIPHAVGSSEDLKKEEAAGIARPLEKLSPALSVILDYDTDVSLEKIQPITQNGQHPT

For `CC[C@H]1OC(=O)[C@H](C)[C@@H](O[C@H]2C[C@@](C)(OC)[C@@H](O)[C@H](C)O2)[C@H](C)[C@@H](O[C@@H]2O[C@H](C)C[C@H](N(C)C)[C@H]2O)[C@](C)(O)C[C@@H](C)CN(C)[C@H](C)[C@@H](O)[C@]1(C)O` [AZITHROMYCIN], the AC50 in assay [1] and in assay [2] was above 30 µM in each case.
In the case of `CCc1oc2ccccc2c1C(=O)c1cc(I)c(O)c(I)c1` [BENZIODARONE], the AC50 in assay [1] and in assay [2] was above 30 µM throughout.
On to `O=C(OCC(O)CO)c1ccccc1Nc1ccnc2cc(Cl)ccc12` (stereo unspecified) [GLAFENINE], for which the AC50 in assay [3] and in assay [4] was above 30 µM each time.
On to `CN1C(C(=O)Nc2ccccn2)=C(O)c2sc(Cl)cc2S1(=O)=O` [LORNOXICAM], for which the AC50 in assay [5], in assay [6], in assay [7] and in assay [8] was above 30 µM in each case.
Consider `Cc1c(C(=O)NN2CCCCC2)nn(-c2ccc(Cl)cc2Cl)c1-c1ccc(Cl)cc1` [RIMONABANT], for which the AC50 in assay [5], in assay [6], in assay [7] and in assay [8] was above 30 µM throughout.
With `Cc1cn([C@H]2C=C[C@@H](CO)O2)c(=O)[nH]c1=O` [STAVUDINE], the AC50 in assay [3] and in assay [4] was above 30 µM throughout.
